Measurements taken from patent US11382956B2, “Amylin analogues” (Zealand Pharma A/S, priority 2016, dated 2022).
Numbered stars: 1 amine (or outer) side, 2 acyl side, 3 side chain; on linkers, the order of the positions; unused ones are H or OH. Bridge positions count the residues as written; N and C are the ends. Square brackets hold non-standard residues; d marks the D form. Peptide text beside a SMILES is read from it. * marks the point of attachment. C20 diacid = O=C(O)CCCCCCCCCCCCCCCCCCC(=O)*; γGlu = O=C(O)[C@H](CCC(=O)[*:2])N[*:1]; Hyp = O=C(O)[C@@H]1C[C@@H](O)CN1; NMeI = CC[C@H](C)[C@H](NC)C(=O)O; Aad = N[C@@H](CCCC(=O)O)C(=O)O; Sar = CNCC(=O)O

Assays:
[1] = target: T1, recombinant human amylin 3 receptor (hAMYR3) (Homo sapiens, UniProt O60896+P30988); assay: hAMYR3 cAMP assay (AlphaScreen) in 1321N1 cells; format: cell-based; conditions: cAMP formation, 45 min stimulation
T1 construct: host or cells: human astrocytoma cell line 1321N1
T1 sequence (P30988 25-474): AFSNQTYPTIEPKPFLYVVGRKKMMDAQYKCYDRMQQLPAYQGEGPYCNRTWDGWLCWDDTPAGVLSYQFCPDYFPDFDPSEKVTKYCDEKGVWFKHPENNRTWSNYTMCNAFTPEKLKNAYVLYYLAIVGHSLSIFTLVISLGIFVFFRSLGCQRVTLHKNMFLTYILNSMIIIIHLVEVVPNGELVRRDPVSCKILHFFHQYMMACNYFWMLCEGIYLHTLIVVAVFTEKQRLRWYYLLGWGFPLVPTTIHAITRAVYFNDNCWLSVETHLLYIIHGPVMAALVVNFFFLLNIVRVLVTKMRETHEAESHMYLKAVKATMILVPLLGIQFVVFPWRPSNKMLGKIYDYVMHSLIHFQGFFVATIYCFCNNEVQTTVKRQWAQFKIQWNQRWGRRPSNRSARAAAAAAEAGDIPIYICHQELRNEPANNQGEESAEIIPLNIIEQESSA
T1 sequence (O60896 24-148 partner): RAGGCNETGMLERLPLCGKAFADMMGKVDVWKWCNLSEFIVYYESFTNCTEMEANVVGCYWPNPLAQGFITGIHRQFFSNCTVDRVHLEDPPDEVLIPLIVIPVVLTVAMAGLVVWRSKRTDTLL
Summary of the method: (§1)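 1321N1 astrocytoma cells expressing recombinant human calcitonin receptor alone or with RAMP3 (AMY3) stimulated 45 min at room temperature with peptide in IBMX-containing buffer. cAMP quantified by AlphaScreen after 1 h bead incubation; EC50 fitted from at least 7 concentrations.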

[2] = Assessment of physical stability: fibril formation by Thioflavin T fluorescence; format: physicochemical; set-up: key: FND = fibrillation not detected; FD = fibrillation detected; conditions: 1 mg/mL peptide; for Fibrillation (in buffer) pH4 acetate: 50 mM acetate buffer pH 4.0, 96 hours at 40° C.; for Fibrillation (in buffer) pH7 histidine: 50 mM histidine buffer pH 7.0, 96 hours at 40° C.; for Fibrillation (in buffer) pH7 phosphate: 50 mM phosphate buffer pH 7.0, 96 hours at 40° C.
Summary of the method: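 Test peptide at 1 mg/mL with 40 μM ThT in 50 mM phosphate pH 7.0, 50 mM histidine pH 7.0, or 50 mM acetate pH 4.0, in triplicate. Fluorescence read every 10 min after 300 s agitation for 96 hours at 40° C; significant intensity rise scored as fibrillation detected (FD).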

[3] = Assessment of chemical stability in 40 mM buffers at 40° C. (RP-HPLC); format: physicochemical; conditions: 1 mg/mL; for % degradation after 72 h at 40° C. pH4 acetate: acetate buffer pH 4, 72 h; for % degradation after 72 h at 40° C. pH6 phosphate: phosphate buffer pH 6, 72 h; for % degradation after 14 days at 40° C. pH6 phosphate: phosphate buffer pH 6, 14 days; for % degradation after 72 h at 40° C. pH7 phosphate: phosphate buffer pH 7, 72 h; for % degradation after 14 days at 40° C. pH7 phosphate: phosphate buffer pH 7, 14 days
Summary of the method: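 Peptides at 1 mg/mL in 40 mM acetate pH 4 or phosphate pH 6 and 7 were held at 40° C for 3 and 14 days. Main-peak area-% by C8 RP-HPLC, UV 220 nm; % degradation = change in main-peak area-% versus t=0.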

[4] = target: T2, recombinant human calcitonin receptor (hCT-R) (Homo sapiens, UniProt P30988); assay: hCT-R cAMP assay (AlphaScreen) in 1321N1 cells; format: cell-based; conditions: cAMP formation, 45 min stimulation
T2 construct: host or cells: human astrocytoma cell line 1321N1
T2 sequence (P30988 25-474): T1 sequence (P30988 25-474)
Summary of the method: as §1

[5] = Effect on acute food intake and body weight in normal Sprague Dawley rats; format: in vivo, Sprague Dawley (SD) rats; conditions: vehicle-corrected
Source text: Sprague Dawley (SD) rats were obtained from Janvier Labs, France. The animals arrived at least 14 days before the study start to allow acclimatization to experimental conditions. From arrival and throughout the study, the rats were housed in groups of 2 to 4 (n=2-4) in a light-, temperature- and humidity-controlled room. Animals had access ad libitum to food (KLIBA 3430, Provimi Kliba AG, Switzerland) and water (domestic quality tap water) during the entire study. Per group 6-8 rats were included. A vehicle group and positive control group were included in each set of tests. […] Dosing volume was 2 ml/kg. Food intake was recorded online using an automated food intake system (HM02, MBRose, Denmark) for 4 days or manually at 0 h for a predose and then 24, 48, 72 and 96 h post dosing. Body weight was measured daily.
Statistical analyses were performed using GraphPad™ Prism version 7. The measured parameters were compared using two-way ANOVA followed by Dunnett's multiple comparison tests. Differences were considered statistically significant at p<0.05.

Compound | EC50 [1] | Fibrillation (in buffer) pH4 acetate [2] | Fibrillation (in buffer) pH7 histidine [2] | Fibrillation (in buffer) pH7 phosphate [2] | % degradation after 72 h at 40° C. pH4 acetate [3] | % degradation after 72 h at 40° C. pH6 phosphate [3] | % degradation after 14 days at 40° C. pH6 phosphate [3] | % degradation after 72 h at 40° C. pH7 phosphate [3] | % degradation after 14 days at 40° C. pH7 phosphate [3] | EC50 [4] | Body weight reduction in % at 48 h ([5]; at dose of 10 nmol/kg sc) | Food intake reduction in % at 48 h ([5]; at dose of 10 nmol/kg sc) | Body weight reduction in % at 48 h ([5]; Dose: 30 nmol/kg sc) | Food intake reduction in % at 48 h ([5]; Dose: 30 nmol/kg sc)
CC[C@H](C)[C@@H](C(=O)N[C@@H](CC(C)C)C(=O)N[C@@H](CO)C(=O)N[C@@H](CO)C(=O)N[C@H](C(=O)N[C@@H](CCC(=O)O)C(=O)N[C@H](C(=O)NCC(=O)N[C@@H](CO)C(=O)N[C@@H](CC(N)=O)C(=O)N[C@H](C(=O)N1C[C@H](O)C[C@H]1C(N)=O)[C@@H](C)O)[C@@H](C)O)[C@@H](C)O)N(C)C(=O)[C@H](C)NC(=O)CN(C)C(=O)[C@H](Cc1ccccc1)NC(=O)[C@H](CO)NC(=O)[C@H](CO)NC(=O)[C@H](CCCNC(=N)N)NC(=O)[C@H](CCC(N)=O)NC(=O)[C@H](CC(C)C)NC(=O)[C@H](Cc1ccccc1)NC(=O)[C@H](CCCC(=O)O)NC(=O)[C@H](C)NC(=O)[C@H](CC(C)C)NC(=O)[C@H](CCCNC(=N)N)NC(=O)[C@H](CCC(=O)O)NC(=O)[C@@H](NC(=O)[C@H](C)NC(=O)[C@@H]1CCCCNC(=O)C[C@H](NC(=O)[C@H](CCCNC(=N)N)NC(=O)CC[C@H](NC(=O)CCCCCCCCCCCCCCCCCCC(=O)O)C(=O)O)C(=O)NCC(=O)N[C@@H]([C@@H](C)O)C(=O)N[C@@H](C)C(=O)N[C@@H]([C@@H](C)O)C(=O)N1)[C@@H](C)O [Compound 36, [19CD]-isoGlu-RD()GTATK()ATERLA-Aad-FLQRSSF-Gly(Me)-A-Ile(Me)-LSSTETGSNT-Hyp-NH2] ({C20 diacid-γGlu}-RDGTATKATERLA[Aad]FLQRSSF[Sar]A[NMeI]LSSTETGSNT[Hyp]-NH2; lactam 2-7) | 0.007 nM | FD | FND | FND | 2.5% | 2.1% | 1.6% | 1.0% | <1% | 0.026 nM | 5.2% | 44% |  | 
CC[C@H](C)[C@@H](C(=O)N[C@@H](CC(C)C)C(=O)N[C@@H](CO)C(=O)N[C@@H](CO)C(=O)N[C@H](C(=O)N[C@@H](CCC(=O)O)C(=O)N[C@H](C(=O)NCC(=O)N[C@@H](CO)C(=O)N[C@@H](CC(N)=O)C(=O)N[C@H](C(=O)N1C[C@H](O)C[C@H]1C(N)=O)[C@@H](C)O)C(C)C)[C@@H](C)O)N(C)C(=O)[C@H](C)NC(=O)CN(C)C(=O)[C@H](Cc1ccccc1)NC(=O)[C@H](CO)NC(=O)[C@H](CO)NC(=O)[C@H](CCCNC(=N)N)NC(=O)[C@H](CCC(N)=O)NC(=O)[C@H](CC(C)C)NC(=O)[C@H](Cc1ccccc1)NC(=O)[C@H](CCCC(=O)O)NC(=O)[C@H](C)NC(=O)[C@H](CC(C)C)NC(=O)[C@H](CCCNC(=N)N)NC(=O)[C@H](CCC(=O)O)NC(=O)[C@@H](NC(=O)[C@H](C)NC(=O)[C@@H]1CCCCNC(=O)C[C@H](NC(=O)[C@H](CCC(=O)O)NC(=O)CC[C@H](NC(=O)CCCCCCCCCCCCCCCCCCC(=O)O)C(=O)O)C(=O)NCC(=O)N[C@@H]([C@@H](C)O)C(=O)N[C@@H](C)C(=O)N[C@@H]([C@@H](C)O)C(=O)N1)[C@@H](C)O [Compound 37, [19CD]-isoGlu-ED()GTATK()ATERLA-Aad-FLQRSSFGly(Me)-A-Ile(Me)-LSSTEVGSNT-Hyp-NH2] ({C20 diacid-γGlu}-EDGTATKATERLA[Aad]FLQRSSF[Sar]A[NMeI]LSSTEVGSNT[Hyp]-NH2; lactam 2-7) | 0.031 nM | FD | FND | FND |  | <1% | <1% | 3.0% | <1% | 0.116 nM |  |  | 4.3% | 24%
CC[C@H](C)[C@@H](C(=O)N[C@@H](CC(C)C)C(=O)N[C@@H](CO)C(=O)N[C@@H](CO)C(=O)N[C@H](C(=O)N[C@@H](CCC(=O)O)C(=O)N[C@H](C(=O)NCC(=O)N[C@@H](CO)C(=O)N[C@@H](CC(N)=O)C(=O)N[C@H](C(=O)N1C[C@H](O)C[C@H]1C(N)=O)[C@@H](C)O)C(C)C)[C@@H](C)O)N(C)C(=O)[C@H](C)NC(=O)CN(C)C(=O)[C@H](Cc1ccccc1)NC(=O)[C@H](CO)NC(=O)[C@H](CO)NC(=O)[C@H](CCCNC(=N)N)NC(=O)[C@H](CCC(N)=O)NC(=O)[C@H](CC(C)C)NC(=O)[C@H](Cc1ccccc1)NC(=O)[C@H](CCCC(=O)O)NC(=O)[C@H](C)NC(=O)[C@H](CC(C)C)NC(=O)[C@H](CCCNC(=N)N)NC(=O)[C@H](CCC(N)=O)NC(=O)[C@@H](NC(=O)[C@H](C)NC(=O)[C@@H]1CCCCNC(=O)C[C@H](NC(=O)[C@H](CCCCN)NC(=O)CC[C@H](NC(=O)CCCCCCCCCCCCCCCCCCC(=O)O)C(=O)O)C(=O)NCC(=O)N[C@@H]([C@@H](C)O)C(=O)N[C@@H](C)C(=O)N[C@@H]([C@@H](C)O)C(=O)N1)[C@@H](C)O [Compound 39, [19CD]-isoGlu-KD()GTATK()ATQRLA-Aad-FLQRSSF-Gly(Me)-Alle(Me)-LSSTEVGSNTHyp-NH2] ({C20 diacid-γGlu}-KDGTATKATQRLA[Aad]FLQRSSF[Sar]A[NMeI]LSSTEVGSNT[Hyp]-NH2; lactam 2-7) | 0.024 nM | FD | FND | FND | <1% | <1% |  | <1% |  | 0.094 nM |  |  | 9.2% | 76%
CC[C@H](C)[C@@H](C(=O)N[C@@H](CC(C)C)C(=O)N[C@@H](CO)C(=O)N[C@@H](CO)C(=O)N[C@H](C(=O)N[C@@H](CCC(=O)O)C(=O)N[C@H](C(=O)NCC(=O)N[C@@H](CO)C(=O)N[C@@H](CC(N)=O)C(=O)N[C@H](C(=O)N1C[C@H](O)C[C@H]1C(N)=O)[C@@H](C)O)C(C)C)[C@@H](C)O)N(C)C(=O)[C@H](C)NC(=O)CN(C)C(=O)[C@H](Cc1ccccc1)NC(=O)[C@H](CO)NC(=O)[C@H](CO)NC(=O)[C@H](CCCNC(=N)N)NC(=O)[C@H](CCC(N)=O)NC(=O)[C@H](CC(C)C)NC(=O)[C@H](Cc1ccccc1)NC(=O)[C@H](CCCC(=O)O)NC(=O)[C@H](C)NC(=O)[C@H](CC(C)C)NC(=O)[C@H](CCCNC(=N)N)NC(=O)[C@H](CCC(N)=O)NC(=O)[C@@H](NC(=O)[C@H](C)NC(=O)[C@@H]1CCCCNC(=O)C[C@H](NC(=O)[C@H](CCCNC(=N)N)NC(=O)CC[C@H](NC(=O)CCCCCCCCCCCCCCCCCCC(=O)O)C(=O)O)C(=O)NCC(=O)N[C@@H]([C@@H](C)O)C(=O)N[C@@H](C)C(=O)N[C@@H]([C@@H](C)O)C(=O)N1)[C@@H](C)O [Compound 40, [19CD]-isoGlu-RD()GTATK()ATQRLA-Aad-FLQRSSF-Gly(Me)-A-Ile(Me)-LSSTEVGSNT-Hyp-NH2] ({C20 diacid-γGlu}-RDGTATKATQRLA[Aad]FLQRSSF[Sar]A[NMeI]LSSTEVGSNT[Hyp]-NH2; lactam 2-7) | 0.008 nM | FD | FND | FND | 1.1% | <1% |  | <1% |  | 0.028 nM |  |  | 7.3% | 83%
